Drawing on ChEMBL document CHEMBL5252519, “Design strategies, structure activity relationship and mechanistic insights for purines as kinase inhibitors” (Eur J Med Chem, 2016), this text covers IC50, EC50 and inhibition for 30 compounds.

Molecules are shown by their SMILES. A value given as a limit tells only on which side of the number the result lay.

In data set [1] the target is Tyrosine-protein kinase SYK (Homo sapiens, UniProt P43405). In words: Inhibition of SYK (unknown origin) using biotinylated EDPDYEWPSA as substrate incubated for 30 mins in presence of 33P-ATP by Scintillation Proximity Assay. For orientation: Scintillation proximity formats need no separation of bound from free tracer.
Data set [2] concerns the target Cyclin-dependent kinase 2/cyclin A (Homo sapiens, UniProt P24941). The data set is described as follows: Inhibition of human CDK2/cyclinA using histone H1 as substrate incubated for 30 mins in presence of gamma[32P]ATP by phosphoimaging analysis. The class given is protein-complex assay.
Data set [3] has as its target CDK9/Cyclin T (Homo sapiens, UniProt P50750). The data set is described as follows: Inhibition of CDK9/Cyclin T (unknown origin) using (YSPTSPS)3 peptide as substrate incubated for 30 mins in presence of gamma[33P]ATP by digital imaging analysis. Type of data set: protein-complex assay.
The target of data set [4] is Cyclin-dependent kinase 2/cyclin E (Homo sapiens, UniProt P24941). In words: Inhibition of CDK2/Cyclin E (unknown origin) using histone as substrate incubated for 30 mins in presence of gamma[33P]ATP by digital imaging analysis. The class given is protein-complex assay.
For data set [5], the target named is T1, Phosphatidylinositol 4,5-bisphosphate 3-kinase catalytic subunit delta isoform (Homo sapiens, UniProt O00329).
T1 sequence (O00329 whole entry): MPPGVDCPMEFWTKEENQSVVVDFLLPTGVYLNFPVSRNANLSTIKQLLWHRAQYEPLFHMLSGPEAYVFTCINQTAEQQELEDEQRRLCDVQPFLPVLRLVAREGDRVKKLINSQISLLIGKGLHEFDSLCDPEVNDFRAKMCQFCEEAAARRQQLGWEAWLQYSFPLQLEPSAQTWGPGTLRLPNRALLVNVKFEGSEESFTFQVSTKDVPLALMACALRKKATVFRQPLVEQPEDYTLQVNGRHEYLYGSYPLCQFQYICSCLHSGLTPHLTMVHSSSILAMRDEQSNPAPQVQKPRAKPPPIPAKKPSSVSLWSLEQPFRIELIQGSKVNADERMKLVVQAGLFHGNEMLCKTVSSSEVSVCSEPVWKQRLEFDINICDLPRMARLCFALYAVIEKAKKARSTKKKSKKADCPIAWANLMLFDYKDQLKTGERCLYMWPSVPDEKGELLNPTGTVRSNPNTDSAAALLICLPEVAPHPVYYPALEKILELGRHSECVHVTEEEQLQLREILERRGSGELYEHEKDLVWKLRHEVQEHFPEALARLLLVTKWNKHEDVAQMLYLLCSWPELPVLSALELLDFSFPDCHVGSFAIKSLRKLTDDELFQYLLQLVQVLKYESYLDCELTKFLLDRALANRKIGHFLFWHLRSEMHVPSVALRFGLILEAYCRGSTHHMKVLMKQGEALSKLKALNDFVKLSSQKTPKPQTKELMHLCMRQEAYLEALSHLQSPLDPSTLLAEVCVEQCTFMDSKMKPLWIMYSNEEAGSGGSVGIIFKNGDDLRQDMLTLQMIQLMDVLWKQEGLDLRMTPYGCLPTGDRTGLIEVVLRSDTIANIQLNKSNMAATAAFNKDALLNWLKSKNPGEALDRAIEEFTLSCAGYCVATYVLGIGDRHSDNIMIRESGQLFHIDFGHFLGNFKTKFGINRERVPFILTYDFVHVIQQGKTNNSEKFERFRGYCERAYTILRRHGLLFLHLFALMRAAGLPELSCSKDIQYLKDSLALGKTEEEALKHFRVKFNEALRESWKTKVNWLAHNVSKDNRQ
In words: Inhibition of human PI3K-delta using PIP2 as substrate in presence of gamma[32P]ATP.

A short description of data set [6]: Antiproliferative activity against HUVEC cells assessed as cell growth inhibition measured after 72 hrs by crystal violet staining based analysis. The class given is toxicity. The settings on record: human.
Data set [7] deals with HMEC. The data set is described as follows: Inhibition of cell migration in HMECs at 10 uM measured after 16 hrs by fluorescence based assay. Type of data set: functional. The settings on record: Homo sapiens.
For data set [8], the system named is MCF7. In words: Cytotoxicity against human MCF7 cells incubated for 48 hrs by SRB assay. The class given is functional, cell-based. The settings on record: MCF7, 48 h.
The target in data set [9] is T1, Phosphatidylinositol 4,5-bisphosphate 3-kinase catalytic subunit delta isoform. The data set is described as follows: Inhibition of PI3K-delta (unknown origin).
The target of data set [10] is Janus Kinase (JAK) (Homo sapiens, UniProt P52333+P23458+O60674+P29597). The data set is described as follows: Inhibition of JAK (unknown origin). The class given is protein assay.
In data set [11] the target is Phosphatidylinositol 4,5-bisphosphate 3-kinase catalytic subunit alpha isoform (Homo sapiens, UniProt P42336). The data set is described as follows: Inhibition of PI3K-p110alpha (unknown origin) incubated for 30 mins by fluorescence polarization assay. Background: Fluorescence polarisation rises when a labelled molecule tumbles more slowly, as on binding a larger partner.

In data set [12] the target is Serine/threonine-protein kinase mTOR (Homo sapiens, UniProt P42345). In words: Inhibition of mTOR (unknown origin).

Sequence of CDK9/Cyclin T (O60563 whole entry): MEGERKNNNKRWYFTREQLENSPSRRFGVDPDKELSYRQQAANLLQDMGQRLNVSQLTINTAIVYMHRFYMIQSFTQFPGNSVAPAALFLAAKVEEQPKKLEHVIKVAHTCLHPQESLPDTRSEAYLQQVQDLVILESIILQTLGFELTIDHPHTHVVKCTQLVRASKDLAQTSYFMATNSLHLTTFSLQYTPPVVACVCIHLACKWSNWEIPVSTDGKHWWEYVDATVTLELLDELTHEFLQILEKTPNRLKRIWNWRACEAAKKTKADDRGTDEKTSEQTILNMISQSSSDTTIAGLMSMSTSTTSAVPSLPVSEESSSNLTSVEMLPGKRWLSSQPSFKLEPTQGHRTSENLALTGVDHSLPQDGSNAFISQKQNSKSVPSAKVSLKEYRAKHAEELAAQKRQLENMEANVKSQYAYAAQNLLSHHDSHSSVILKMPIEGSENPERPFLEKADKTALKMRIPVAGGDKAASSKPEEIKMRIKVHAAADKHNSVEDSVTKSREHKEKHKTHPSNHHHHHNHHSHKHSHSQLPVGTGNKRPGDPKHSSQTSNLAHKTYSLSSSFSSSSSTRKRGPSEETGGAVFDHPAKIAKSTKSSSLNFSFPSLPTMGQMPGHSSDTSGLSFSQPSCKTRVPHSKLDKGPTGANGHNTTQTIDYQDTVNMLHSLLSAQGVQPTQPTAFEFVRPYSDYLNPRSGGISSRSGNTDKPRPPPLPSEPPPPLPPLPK
Sequence of CDK9/Cyclin T (P50750 whole entry): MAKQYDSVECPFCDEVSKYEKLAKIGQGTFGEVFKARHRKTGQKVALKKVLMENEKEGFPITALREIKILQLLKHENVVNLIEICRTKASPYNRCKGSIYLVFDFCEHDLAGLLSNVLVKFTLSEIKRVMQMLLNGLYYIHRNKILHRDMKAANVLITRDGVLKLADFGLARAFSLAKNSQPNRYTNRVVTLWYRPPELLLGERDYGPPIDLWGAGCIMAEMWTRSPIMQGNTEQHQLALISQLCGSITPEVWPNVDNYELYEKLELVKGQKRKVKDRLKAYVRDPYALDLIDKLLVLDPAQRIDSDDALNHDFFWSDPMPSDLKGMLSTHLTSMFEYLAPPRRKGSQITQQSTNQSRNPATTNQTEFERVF
Sequence of CDK9/Cyclin T (O60583 whole entry, further chain): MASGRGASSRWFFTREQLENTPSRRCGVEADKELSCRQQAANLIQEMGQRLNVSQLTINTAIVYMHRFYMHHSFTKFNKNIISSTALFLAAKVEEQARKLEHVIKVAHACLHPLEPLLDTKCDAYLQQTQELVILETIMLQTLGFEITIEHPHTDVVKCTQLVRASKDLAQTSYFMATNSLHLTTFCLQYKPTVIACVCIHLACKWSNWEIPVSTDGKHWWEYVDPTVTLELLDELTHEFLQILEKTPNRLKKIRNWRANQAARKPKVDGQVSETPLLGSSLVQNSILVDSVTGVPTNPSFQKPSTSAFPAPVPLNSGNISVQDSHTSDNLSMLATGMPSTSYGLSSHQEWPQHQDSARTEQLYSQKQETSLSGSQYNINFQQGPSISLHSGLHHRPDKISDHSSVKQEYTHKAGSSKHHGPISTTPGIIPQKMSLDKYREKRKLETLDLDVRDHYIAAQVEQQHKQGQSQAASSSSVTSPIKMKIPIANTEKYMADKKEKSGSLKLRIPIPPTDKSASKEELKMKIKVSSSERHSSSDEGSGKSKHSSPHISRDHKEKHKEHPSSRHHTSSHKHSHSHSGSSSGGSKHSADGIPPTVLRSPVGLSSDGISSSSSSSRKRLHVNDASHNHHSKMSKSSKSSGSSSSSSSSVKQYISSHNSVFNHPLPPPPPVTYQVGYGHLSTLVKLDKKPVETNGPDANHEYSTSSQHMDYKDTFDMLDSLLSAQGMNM
Sequence of Phosphatidylinositol 4,5-bisphosphate 3-kinase catalytic subunit alpha isoform (P42336 whole entry, canonical isoform): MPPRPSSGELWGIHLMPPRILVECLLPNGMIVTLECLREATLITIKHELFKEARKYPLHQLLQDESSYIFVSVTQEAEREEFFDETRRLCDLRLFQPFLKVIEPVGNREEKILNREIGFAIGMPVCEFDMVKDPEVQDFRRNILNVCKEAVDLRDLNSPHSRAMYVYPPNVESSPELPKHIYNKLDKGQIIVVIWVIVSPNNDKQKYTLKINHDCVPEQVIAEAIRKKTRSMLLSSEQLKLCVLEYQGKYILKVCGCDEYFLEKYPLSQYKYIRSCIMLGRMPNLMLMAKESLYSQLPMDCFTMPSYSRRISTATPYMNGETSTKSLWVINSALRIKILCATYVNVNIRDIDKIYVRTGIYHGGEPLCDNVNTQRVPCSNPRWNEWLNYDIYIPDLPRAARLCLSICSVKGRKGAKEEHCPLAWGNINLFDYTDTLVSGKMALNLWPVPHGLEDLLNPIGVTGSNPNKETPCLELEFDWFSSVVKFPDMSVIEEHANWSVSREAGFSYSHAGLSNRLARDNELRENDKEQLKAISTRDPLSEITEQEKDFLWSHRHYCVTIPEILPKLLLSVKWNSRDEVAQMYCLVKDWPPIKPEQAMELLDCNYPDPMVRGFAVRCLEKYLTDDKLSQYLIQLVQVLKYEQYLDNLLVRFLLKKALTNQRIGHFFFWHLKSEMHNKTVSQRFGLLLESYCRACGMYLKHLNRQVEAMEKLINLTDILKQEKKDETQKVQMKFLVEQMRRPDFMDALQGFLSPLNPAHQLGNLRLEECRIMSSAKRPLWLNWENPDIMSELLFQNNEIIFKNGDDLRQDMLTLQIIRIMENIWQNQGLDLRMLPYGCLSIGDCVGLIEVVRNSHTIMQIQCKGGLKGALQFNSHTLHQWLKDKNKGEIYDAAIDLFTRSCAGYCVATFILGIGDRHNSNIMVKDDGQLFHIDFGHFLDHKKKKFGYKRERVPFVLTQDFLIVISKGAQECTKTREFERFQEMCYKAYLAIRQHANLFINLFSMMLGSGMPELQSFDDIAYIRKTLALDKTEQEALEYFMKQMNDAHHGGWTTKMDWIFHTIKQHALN

The term IC50 denotes the concentration at which inhibition is half-maximal. Consider `CC(C)(C)Nc1nc(Nc2ccc(CC(=O)O)cc2)nc2[nH]cnc12`, for which the IC50 in data set [1] turned out to be 5 nM. As to `CC(C)[C@H](CO)Nc1nc(Nc2ccc(Cl)c(N)c2)c2ncn(C(C)C)c2n1`, the concentration for half-maximal inhibition (IC50) in data set [2] is less than 50 nM. For the compound `COc1cccc(CNc2nc(NC3CCC(N)CC3)nc3c2ncn3C(C)C)c1O` (centres undefined), the values for the concentration for half-maximal inhibition (IC50) in [3] and in data set [4] were 9 nM and 20 nM, respectively.

On to `CCC(CO)Nc1nc(NCc2cc(C)ccc2O)c2ncn(C(C)C)c2n1` (centres undefined), for which the half-inhibitory concentration (IC50) in data set [3] was 6 nM. `CCC(Nc1ncnc2[nH]cnc12)c1nc2cccc(C)c2c(=O)n1-c1cc(F)cc(F)c1` (centres undefined): in data set [5], the half-maximal inhibitory concentration (IC50) came out at 12 nM. Consider `CC[C@H](Nc1ncnc2[nH]cnc12)c1nc2cccc(Cl)c2c(=O)n1-c1cc(F)cc(F)c1`, for which the IC50 in data set [5] is 45 nM. What is called EC50 is the concentration at which the effect is half-maximal. In general, inhibition refers to how much of the control response was suppressed. As for `CC[C@@H](CO)Nc1nc(NCc2cccc(OC)c2O)c2ncn(C(C)C)c2n1`, the concentration giving a half-maximal response (EC50) at 72 h in data set [6] came to 2850 nM. Further, at 10 µM the inhibition in data set [7] was 14%. For the compound `CC[C@H](CO)Nc1nc(NCc2cccc(OC)c2O)c2ncn(C(C)C)c2n1`, the EC50 at 72 h in [6] amounted to 7120 nM. In data set [7], this compound displayed an inhibition at 10 µM of 54%. The compound `Cc1nn(-c2ccccc2)c2ncn(N)c(=O)c12` gave a concentration for half-maximal inhibition (IC50) in [8] of 89200 nM. On to `CCC(Nc1ncnc2[nH]cnc12)c1nc2cccc(Cl)c2c(=O)n1-c1c(F)cccc1F` (centres undefined), for which the IC50 in data set [5] turned out to be 26 nM. `CS(=O)(=O)N1CCN(CCn2cnc3c(-n4c(C(F)F)nc5ccccc54)nc(N4CCOCC4)nc32)CC1`: the IC50 in [9] was less than 30 nM. Regarding `CC(C)C(CO)Nc1nc(Nc2cccc(Cl)c2)c2ncn(C(C)C)c2n1` (centres undefined), the IC50 in data set [2] is less than 50 nM. On to `CC[C@@H](CO)Nc1nc(NCc2ccccc2O)c2ncn(C(C)C)c2n1`, for which, in data set [6], the 50% effective concentration (EC50) at 72 h turned out to be 1590 nM. As for `COc1cc(Nc2nc(NC3C4C=CC(C4)C3C(N)=O)c3nc[nH]c3n2)cc(OC)c1OC` (centres undefined), the IC50 in data set [10] is recorded as less than 1 nM. Same read-out and setting: for `NC(=O)C1C2C=CC(C2)C1Nc1nc(Nc2cccc(S(N)(=O)=O)c2)nc2[nH]cnc12` (centres undefined) the value was less than 1 nM.

On to `Cc1nc(N)ncc1-c1nc(N2CCOCC2)c2nc(C(C)(C)C)n(CCO)c2n1`, for which the IC50 in [11] is less than 10 nM. With `NC(=O)[C@@H]1[C@H](Nc2nc(Nc3cccc(S(N)(=O)=O)c3)nc3[nH]cnc23)[C@H]2C=C[C@@H]1C2`, the IC50 in [10] was less than 1 nM. As for `CC(C)Nc1nc(Nc2ccc(S(=O)(=O)N(C)C)cc2)nc2[nH]cnc12`, the half-maximal inhibitory concentration (IC50) in [1] was determined as 5 nM. For the compound `CC(C)[C@H](CO)Nc1nc(Nc2ccc(Cl)c(C(=O)O)c2)c2ncn(C(C)C)c2n1`, the IC50 in data set [2] was less than 50 nM. `O=C(Nc1ccc(-c2nc(C3=CCOCC3)c3cnn(CC(F)(F)F)c3n2)cc1)Nc1cccnc1` displayed a half-maximal inhibitory concentration (IC50) in [12] of 2.4 nM. With `c1nc2c(NC3CC4CCC3C4)nc(Nc3ccc(N4CCCCC4)cc3)nc2[nH]1` (centres undefined), the IC50 in data set [10] is given as less than 1 nM. With `C/C=N/Nc1ccc(Nc2nc(NCC)c3nc[nH]c3n2)cc1`, the IC50 in data set [1] came out at 5 nM. In the case of `OCCn1cnc2c(-c3cn[nH]c3)nc(N3CCOCC3)nc21`, in data set [9], the half-maximal inhibitory concentration (IC50) was less than 30 nM. As to `CC(C)n1cnc2c(NCc3cc(F)ccc3O)nc(NC3CCC(N)CC3)nc21` (centres undefined), the figures for the IC50 in data set [3] and in [4] were 8 nM and 20 nM, respectively.

Consider `CC(C)Oc1cccc(Nc2nc(NC3C4C=CC(C4)C3C(N)=O)c3nc[nH]c3n2)c1` (centres undefined), for which the IC50 in data set [10] was less than 1 nM. `Cc1nn(-c2ccccc2)c2ncnc(Nc3ccc(C(=O)N4CCOCC4)cc3)c12`: it took 14900 nM to reach half-maximal inhibition in data set [8] (IC50).

In the case of `CC(=O)N1N=C(c2ccc(Nc3ncnc4c3c(C)nn4-c3ccccc3)cc2)CC1c1ccc(Cl)cc1` (centres undefined), in [8], the concentration for half-maximal inhibition (IC50) was found to be 14900 nM.

Consider `COc1cccc(CNc2nc(NC3CCCCC3N)nc3c2ncn3C(C)C)c1O` (centres undefined), for which, in data set [3], the IC50 amounted to 7 nM. In the case of `CC(C)[C@H](CO)Nc1nc(Nc2cccc(Cl)c2)c2ncn(C(C)C)c2n1` [PURVALANOLA], in data set [2], the IC50 is less than 50 nM. The compound `CC(C)(C)c1nc2c(N3CCOCC3)nc(-c3cccc4[nH]ccc34)nc2n1CCO` gave a concentration for half-maximal inhibition (IC50) in data set [11] of less than 10 nM.
